Values quoted from earlier work as cited in patent US7169586B2, “Mutant N-acetylglutamate synthase and method for L-arginine production” (Ajinomoto Co., Inc., priority 2000, dated 2007).
pKi: −log10 of the molar value.

Columns and labels:
argA expression = settings: Cunin et al. 1986; Leisinger and Haas 1975
NAGS = NAGS (Escherichia coli, UniProt P0A6C5); settings: Leisinger and Haas 1975; read-out: Ki, inhibition of NAGS activity
NAGS, sequence (P0A6C5 whole entry): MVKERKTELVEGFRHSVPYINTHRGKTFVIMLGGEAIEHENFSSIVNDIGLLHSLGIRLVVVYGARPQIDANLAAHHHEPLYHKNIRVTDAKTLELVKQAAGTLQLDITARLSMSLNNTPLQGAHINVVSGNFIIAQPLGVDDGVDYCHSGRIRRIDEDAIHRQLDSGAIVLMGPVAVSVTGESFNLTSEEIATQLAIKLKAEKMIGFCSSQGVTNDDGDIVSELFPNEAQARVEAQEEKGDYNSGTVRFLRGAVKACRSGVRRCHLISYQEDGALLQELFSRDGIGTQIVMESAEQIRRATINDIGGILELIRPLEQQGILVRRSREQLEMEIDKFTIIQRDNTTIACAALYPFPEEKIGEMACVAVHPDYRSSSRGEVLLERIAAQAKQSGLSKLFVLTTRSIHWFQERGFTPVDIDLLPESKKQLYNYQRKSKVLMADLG

## N=C(N)NCCC[C@H](N)C(=O)O [L-Arginine]
argA expression
  repression ratio of argA expression: greater than 250
NAGS
  pKi: 4.70
